Tests used:
Test in all cases: relative viability (nuclei count vs DMSO), 5 days (fraction); higher = more cells survive
[1] = compound: OCc1c[nH]c2ccccc12 [Indole-3-carbinol] + O=C(CCCCCCC(=O)Nc1ccccc1)NO [Vorinostat] (partner 1 µM)
In short: (§1)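 After 5 days of treatment, lung cancer cells in 1536-well plates were fixed and stained in a single step (final 0.05% Triton X-100, 1% formaldehyde, 1 ug/ml Hoechst) and their nuclei counted on 4× images. Treatment had been applied by pin tool the day after seeding as one drug alone or as a fixed anchor-drug dose with five library-drug doses (not always all listed) in √10 steps. Relative viability is the nuclei count of treated wells divided by that of vehicle wells, and values are medians of duplicate plates.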

[2] = compound: OCc1c[nH]c2ccccc12 [Indole-3-carbinol] + CC(C)C[C@H](NC(=O)[C@H](Cc1ccccc1)NC(=O)c1cnccn1)B(O)O [Bortezomib] (partner 0.002 µM)
In short: as §1

[3] = compound: OCc1c[nH]c2ccccc12 [Indole-3-carbinol] + COc1cc2c(Oc3ccc(NC(=O)C4(C(=O)Nc5ccc(F)cc5)CC4)cc3F)ccnc2cc1OCCCN1CCOCC1 [Foretinib] (partner 0.25 µM)
In short: as §1

[4] = compound: OCc1c[nH]c2ccccc12 [Indole-3-carbinol] + CCNC(=O)c1noc(-c2cc(C(C)C)c(O)cc2O)c1-c1ccc(CN2CCOCC2)cc1 [Luminespib] (partner 0.01 µM)
In short: as §1

[5] = compound: OCc1c[nH]c2ccccc12 [Indole-3-carbinol] + Cc1cc(Nc2cc(N3CCN(C)CC3)nc(Sc3ccc(NC(=O)C4CC4)cc3)n2)n[nH]1 [Tozasertib] (partner 0.1 µM)
In short: as §1

Cell Line | relative viability ([1]; first compound 0.253 µM) | relative viability ([1]; first compound 0.8 µM) | relative viability ([1]; first compound 2.53 µM) | relative viability ([1]; first compound 8 µM) | relative viability ([2]; first compound 0.253 µM) | relative viability ([2]; first compound 0.8 µM) | relative viability ([2]; first compound 2.53 µM) | relative viability ([2]; first compound 8 µM) | relative viability ([3]; first compound 0.253 µM) | relative viability ([3]; first compound 0.8 µM) | relative viability ([3]; first compound 2.53 µM) | relative viability ([3]; first compound 8 µM) | relative viability ([4]; first compound 0.253 µM) | relative viability ([4]; first compound 0.8 µM) | relative viability ([4]; first compound 2.53 µM) | relative viability ([4]; first compound 8 µM) | relative viability ([5]; first compound 0.253 µM) | relative viability ([5]; first compound 0.8 µM) | relative viability ([5]; first compound 2.53 µM) | relative viability ([5]; first compound 8 µM)
LXF-289 | 0.836 | 0.795 | 0.733 | 0.76 | 1.03 | 1.1 | 0.944 | 0.893 | 0.973 | 0.978 | 0.968 | 0.945 | 0.787 | 0.754 | 0.647 | 0.575 | 0.228 | 0.21 | 0.289 | 0.199
NCI-H23 | 0.516 | 0.615 | 0.704 | 0.587 | 0.898 | 1.16 | 0.846 | 0.975 | 1.03 | 1.01 | 1.04 | 1.02 | 0.219 | – | 0.233 | 0.223 | 0.351 | 0.359 | 0.345 | 0.377
NCI-H322M | 0.713 | 0.8 | 0.902 | 0.779 | 1.18 | 1.25 | 1.3 | 1.07 | 0.827 | 0.998 | 0.876 | 0.829 | 0.828 | 0.861 | 0.895 | 0.783 | 0.476 | 0.465 | 0.458 | 0.472
NCI-H441 | 0.823 | 1.05 | 1.09 | 0.758 | 0.367 | 0.938 | 0.381 | 0.375 | 0.784 | 1.1 | 0.952 | 1.05 | 0.324 | 0.334 | 0.456 | 0.301 | 0.551 | 0.782 | 0.702 | 0.595
NCI-H460 | 0.768 | 0.76 | 0.754 | 0.683 | 1.14 | 1.14 | 1.11 | 1.03 | 1.03 | 1.02 | 1.02 | 0.992 | 0.0368 | 0.037 | 0.0298 | 0.0346 | 0.426 | 0.385 | 0.532 | 0.443
NCI-H520 | 0.707 | 0.7 | 0.87 | 0.692 | 0.543 | 0.613 | 0.498 | 0.563 | 0.863 | 0.774 | 0.705 | 0.62 | 0.188 | 0.178 | 0.219 | 0.211 | 0.445 | 0.46 | 0.417 | 0.457
NCI-H596 | 0.552 | 0.522 | 0.565 | 0.675 | 0.996 | 0.773 | 0.987 | 1.01 | 0.921 | 0.885 | 1.05 | 0.791 | 0.734 | 1.01 | 0.913 | 1 | 0.803 | 1.04 | 0.784 | 0.896
NCI-H647 | 0.731 | 0.529 | 0.731 | 0.538 | 1.15 | 0.718 | 1.04 | 0.883 | 1.22 | – | 1.22 | 1.01 | 0.261 | 0.199 | 0.156 | 0.236 | 0.147 | – | 0.368 | 0.398
NCI-H650 | 0.654 | 0.454 | 0.411 | 0.456 | 0.955 | 0.748 | 0.83 | 0.746 | 1.05 | 1.02 | 1.04 | 0.953 | 0.785 | 0.882 | 0.844 | 0.647 | 0.743 | 0.767 | 0.805 | 0.681
NCI-H661 | 0.762 | 0.816 | 0.874 | 0.716 | 0.94 | 0.602 | 0.748 | 0.746 | 1.02 | 1.04 | 1.03 | 1.01 | 0.922 | 0.952 | 0.965 | 0.895 | 0.335 | 0.334 | 0.359 | 0.348
NCI-H727 | 1.13 | 1.12 | 1.36 | 1.23 | 0.872 | 0.842 | 0.897 | 0.828 | 0.744 | 0.891 | 1.05 | 0.886 | 0.355 | 0.452 | 0.344 | 0.328 | 0.512 | 0.73 | 0.599 | 0.554
NCI-H838 | 0.741 | 0.737 | 0.766 | 0.654 | 0.842 | 0.789 | 0.856 | 0.913 | 0.997 | 0.985 | 1.01 | 1.02 | 0.292 | 0.305 | 0.308 | 0.303 | 0.265 | 0.308 | 0.301 | 0.286
NCI-H1355 | 0.612 | 0.69 | 0.667 | 0.63 | 1.25 | 1.18 | 1.2 | 1.17 | 0.961 | 1.01 | 0.998 | 0.978 | 0.754 | 0.764 | 0.618 | 0.643 | 0.525 | 0.619 | 0.551 | 0.564
NCI-H1437 | 0.827 | 0.979 | 0.861 | 0.868 | 0.503 | 0.532 | 0.498 | 0.466 | 1.29 | 1.34 | 1.24 | 1.2 | 1.07 | 1.2 | 1.13 | 1.11 | 0.412 | 0.439 | 0.421 | 0.424
NCI-H1650 | 0.535 | 0.623 | 0.657 | 0.676 | 0.19 | 0.192 | 0.207 | 0.194 | 0.987 | – | 1.08 | 1.3 | 0.167 | – | 0.19 | 0.221 | 0.371 | – | 0.364 | 0.473
NCI-H1651 | 0.517 | 0.55 | 0.616 | 0.646 | 0.917 | 0.938 | 0.98 | 0.874 | 0.828 | 0.853 | 0.857 | 0.737 | 0.848 | 0.877 | 0.686 | 0.753 | 0.723 | 0.922 | 0.834 | 0.614

Reference: the supplement of paper PMC10307832
